# Reference: paper PMC4983742 (ACS Medicinal Chemistry Letters, 2016)
# Biological target: T1, androgen receptor (AR) (Homo sapiens, UniProt P10275, T878A)
# T1 sequence (P10275 1-920 T878A): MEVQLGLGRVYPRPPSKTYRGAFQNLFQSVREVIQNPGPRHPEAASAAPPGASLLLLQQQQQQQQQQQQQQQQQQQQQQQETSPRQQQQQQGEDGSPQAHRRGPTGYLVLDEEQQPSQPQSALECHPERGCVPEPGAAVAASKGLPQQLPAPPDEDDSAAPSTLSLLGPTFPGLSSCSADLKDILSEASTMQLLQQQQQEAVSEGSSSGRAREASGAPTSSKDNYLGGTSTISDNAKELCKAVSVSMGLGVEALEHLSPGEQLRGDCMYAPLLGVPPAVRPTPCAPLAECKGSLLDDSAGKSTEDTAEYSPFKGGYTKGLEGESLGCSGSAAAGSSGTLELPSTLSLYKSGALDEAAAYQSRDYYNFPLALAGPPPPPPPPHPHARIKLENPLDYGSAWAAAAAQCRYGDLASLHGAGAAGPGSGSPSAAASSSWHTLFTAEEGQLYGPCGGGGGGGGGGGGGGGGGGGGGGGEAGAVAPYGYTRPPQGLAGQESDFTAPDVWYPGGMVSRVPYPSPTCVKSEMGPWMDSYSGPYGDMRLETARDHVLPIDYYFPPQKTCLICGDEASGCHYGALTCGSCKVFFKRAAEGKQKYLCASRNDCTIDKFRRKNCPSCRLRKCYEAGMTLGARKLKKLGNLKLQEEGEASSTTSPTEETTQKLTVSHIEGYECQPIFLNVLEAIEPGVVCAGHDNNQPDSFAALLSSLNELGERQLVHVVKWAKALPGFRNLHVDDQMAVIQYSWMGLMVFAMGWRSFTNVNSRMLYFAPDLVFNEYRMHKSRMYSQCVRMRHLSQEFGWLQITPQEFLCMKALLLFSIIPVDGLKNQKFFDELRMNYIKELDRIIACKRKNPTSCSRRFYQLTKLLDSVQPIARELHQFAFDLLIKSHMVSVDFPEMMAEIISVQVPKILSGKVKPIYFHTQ
# Assay type: cell-based
# Details: not given
"fold less potent than enantiomer (1S,2R)-27",fold increase in activity relative to amide 5b [fold],SMILES
ca. 10 fold,,"Cc1ccc(Cl)cc1N1CCN(C(=O)[C@@H]2C[C@@H]2c2ccc(F)cc2)CC1 [(1R,2S)-27]"
,1.3,Cc1ccccc1N1CCN(CCSCc2c(C)noc2C)CC1 [compound 6]

# Same assay, conditions: C4-2-PSA-rl cells, 1 nM R1881
row,"activity in the PSA luciferase assay, in words",SMILES
1,essentially inactive,Cc1ccccc1N1CCN(C(=O)[C@H]2C[C@@H]2c2ccccc2)CC1 (relative stereo) [compound 16]
2,essentially inactive,Cc1ccccc1N1CCN(C(=O)C#Cc2ccccc2)CC1 [compound 10]
3,essentially inactive,Cc1ccccc1N1CCN(C(=O)/C=C/c2ccccc2)CC1 [compound 11]
4,inactive,Cc1ccccc1N1CCC(OC(=O)NCSCc2c(C)noc2C)CC1 [20b]
5,abolished activity,Cc1ccccc1N1CCN(C(=O)CN(C)Cc2ccccc2)CC1 [18b]
6,loss of activity,Cc1cccc(N2CCN(C(=O)CSCc3c(C)noc3C)CC2)c1 [5c]
7,loss of activity,Cc1ccc(N2CCN(C(=O)CSCc3c(C)noc3C)CC2)cc1 [5d]
8,abolished activity,Cc1ccccc1N1CCN(C(=O)CSc2ccccc2)CC1 [compound 9]
9,deleted activity,Cc1noc(C)c1CSCC(=O)N1CCN(c2ccccc2)CC1 [5a]
10,inactive,Cc1ccccc1N1CCN(C(=O)NCSCc2c(C)noc2C)CC1 [20a]
11,abolished activity,Cc1ccccc1N1CCN(C(=O)COCc2c(C)noc2C)CC1 [18a]
12,inactive,Cc1ccccc1N1CCN(C(=O)C[S+]([O-])Cc2c(C)noc2C)CC1 (stereo not shown) [compound 12]
13,complete loss of activity,COc1ccccc1N1CCN(C(=O)CSCc2c(C)noc2C)CC1 [5h]

row,SMILES,"activity in the PSA luciferase assay, in words"
1,"Cc1ccc(Cl)cc1N1CCN(C(=O)[C@H]2C[C@H]2c2ccc(F)cc2)CC1 [(1S,2R)-27]","substantially equipotent to the commercial AR antagonist, enzalutamide"
